Measurements: US9475789B2, “Use of polyenylpyrrole derivatives for treating inflammation” (WELLHEAD BIOLOGICAL TECHNOLOGY CORP., priority 2014, dated 2016)

Assays:
ROS = test: Intracellular ROS production, ATP-activated J774A.1 macrophages; type: cell-based, murine
Description: In (A), J774A.1 macrophages (1×10^6/ml) were incubated with LPS (1 μg/ml) for 5.5 h and then incubated with compound 1 h ([…]), DPI (100 μM), or DMSO (vehicle) for 30 min followed by ATP (5 mM) stimulating for the indicated time, then ROS levels were measured by detection of the fluorescence intensity of the fluorophore carboxyl-DCF and expressed relative to those at time zero. In (B), J774A.1 macrophages (1×10^6/ml) were incubated with compound 1h (20 μM), DPI (100 μM), or DMSO (vehicle) for 30 min followed by LPS (1 μg/ml) stimulating for 5.5 h, then the cells were stimulated with ATP (5 mM) for the indicated time. The ROS levels were measured by detection of the fluorescence intensity of the fluorophore carboxyl-DCF and expressed relative to those at time zero. In (C), LPS-primed J774A.1 macrophages (1×10^6/ml) were incubated with compound 1h (20 μM) or DMSO (vehicle) for 30 min followed by ATP (5 mM) stimulating for 0-60 min, then the phosphorylation level of PKC-α was analyzed by Western blot.
Intracellular ROS stimulated by LPS was measured by detecting the fluorescence intensity of the 2′,7′-dichlorofluorescein diacetate (H2DCFDA) oxidized product (DCF) (Molecular Probes, Eugene, Oreg.). […]

RAW 264.7 cells = test: AlamarBlue assay for cell viability; type: cell-based, murine; settings: Mus musculus, RAW264.7, cytotoxicity against RAW 264.7 cells, 24 h treatment
Description: RAW 264.7 cells were seeded at a density of 5000 cells in 100 μl RPMI 1640 medium with 10% heat-inactivated FBS per well in 96-well flat-bottom plates and incubated for 24 h at 37° C. in a 5% CO2 incubator. Cells were incubated with tested samples for 24 h and the AlamarBlue® assay was used to determine the cytotoxicity of the test samples. The procedure was conducted following the protocol described in the manufacture's instruction (AbD Serotec Ltd).
The aim of this study is to identify non-toxic polyenylpyrrole derivatives which can be used as anti-inflammatory agents. Compounds 1a-n were evaluated for their cytotoxicities against the murine macrophages cell line RAW 264.7 after 24 h treatment.

IL-6 = IL-6 ELISA, LPS-activated J774A.1 macrophages; type: cell-based, murine; settings: J774A.1 cells, LPS 1 μg/ml 24 h
Description: (§1) (A) J774A.1 macrophages (4×10^5/ml), (B) peritoneal macrophages (4×10^5/ml), and (C) JAWSII dendritic cells (4×10^5/ml) were incubated with compound 1h or DMSO for 30 min followed by stimulating with LPS (1 μg/ml) for 24 h, then IL-6 and TNF-α concentration in culture medium were assayed by ELISA. The data are expressed as the mean±SD for three separate experiments. *, **, and *** indicate a significant difference at the level of p<0.05, p<0.01, p<0.001 respectively compared to LPS group.
(§2) The effects of tested samples on IL-1β, TNF-α and IL-6 production were measured by ELISA according to the manufacturer's instruction. In brief, 50 μl of biotinylated antibody reagent and 50 μl of supernatant were added to an anti-mouse IL-1β, TNF-α and IL-6 precoated stripwell plate, and incubated at room temperature for 2 h. After washing the plate three times with washing buffer, 100 μl of diluted streptavidin-HRP concentrate was added to each well and incubated at room temperature for 30 min. The washing process was repeated; then 100 μl of a premixed tetramethylbenzidine substrate solution was added to each well and developed at room temperature in the dark for 30 min. Following the addition of 100 μl of stop solution to each well to stop the reaction, the absorbance of the plate was measured by a microplate reader at 450 nm wavelength.

proIL-1β = test: Western blot of proIL-1β, LPS-activated J774A.1 macrophages; type: cell-based, mouse; settings: compound 30 min, then LPS 6 h
Description: (A) J774A.1 macrophages (1×10^6/ml) and (B) peritoneal macrophages (1×10^5/ml) were incubated with compound 1h for 30 min followed by LPS (1 μg/ml) stimulating for 5.5 h, then the cells were stimulated with ATP (5 mM) for an additional 30 min. The IL-1β in the culture medium was measured by ELISA and the expression of active caspase-1 (p10) was measured by Western blot. In (C) and (D), J774A.1 macrophages (1×10^6/ml) were incubated with LPS (1 μg/ml) for 5.5 h, then cells were incubated with compound 1h for 30 min followed by stimulating with ATP (5 mM) for an additional 30 min. The IL-1β and IL-6 in the culture medium were measured by ELISA and the expression of active caspase-1 (p10) was measured by Western blot. In (E), J774A.1 macrophages (1×10^6/ml) were incubated with compound 1h for 30 min followed by LPS (1 μg/ml) stimulating for 6 h. The expression of NLRP3 and proIL-1β were measured by Western blot.
Whole cell lysates were separated by SDS-PAGE and electrotransferred to a PVDF membrane. The membranes were incubated in blocking solution—5% nonfat milk in phosphate buffered saline with 0.1% Tween 20—at room temperature for 1 h. Each membrane was incubated with a specific primary antibody at room temperature for 2 h. After washing three times in PBS with 0.1% Tween 20, the membrane was incubated with an HRP-conjugated secondary antibody directed against the primary antibody. […]

TNF-α = TNF-α ELISA, LPS-activated JAWSII dendritic cells; type: cell-based, murine; settings: LPS 1 μg/ml 24 h
Description: as §1, §2

Structure (SMILES): O=c1cc(O)cc(/C=C/C=C/C=C/C=C/c2[nH]ccc2Cl)o1 [Compound 1h]
- ATP-induced ROS production (ROS; J774A.1, compound 1h 20 μM added before LPS priming): inhibited ATP-induced ROS production significantly
- ATP-induced ROS production (ROS; LPS-primed J774A.1, compound 30 min before ATP stimulation): reduces ATP-induced ROS production slightly
- IC50 (RAW 264.7 cells): > 100 µM
- secretion of IL-6 (IL-6): reduced
- LPS-induced proIL-1β expression (proIL-1β): inhibited LPS-induced proIL-1β expression in a dose-dependent fashion
- secretion of TNF-α (TNF-α): also reduced
